Assay results from patent US20070122802A1, “Methods of diagnosing and treating diabetes and insulin resistance” (priority 2002, published 2007).

Assays:
Type in all cases: in vivo, human
PRK1 = experiment: Gene expression profiling (Affymetrix chips) of muscle from diabetics before/after troglitazone: PRK1 transcripts; details: PRK1 mRNA, Basal sample
Description: (§1) The molecular mechanism by which thiazolidinediones (TZDs) cause an increase in peripheral insulin sensitivity was studied. Genes in muscle or fat whose expression is altered by TZDs may lie on a pathway leading from TZD treatment to increased insulin sensitivity. Modulators of such genes can elicit the same effect as TZD treatment. Moreover, such modulators can lack some of the side effects of TZD. The majority of glucose disposal occurs in muscle. For this reason, gene expression profiling in human muscle from diabetics treated with troglitazone was used to identify genes important for TZD action and therefore treatment of diabetes and insulin resistance. […]
(§2) In the second study, samples were obtained from lean, obese, and diabetic individuals before and after a hyperinsulinemic euglycemic clamp. […] The gene expression profile for each individual was determined by hybridization of cRNA to custom synthesized Affymetrix chips.
(§3) Gene expression profile differences were calculated as follows. […] The raw data was analyzed by a statistical test to remove ‘outliers’. The mean ‘average difference score’ was then calculated from the average difference scores for all individuals in a particular treatment group. Genes were determined to be changed in three different comparisons by calculating the Students t test statistic between two conditions and selecting those with t less than or equal to 0.05. […]

HIOMT = experiment: Gene expression profiling (Affymetrix chips) of muscle from diabetics before/after troglitazone: HIOMT transcripts; details: HIOMT mRNA, Basal sample
Description: as §1, §2, §3

Ceramidase = experiment: Gene expression profiling (Affymetrix chips) of muscle from diabetics before/after troglitazone: ceramidase transcripts; details: Ceramidase mRNA, Clamp sample
Description: as §1, §2, §3

Endothelin A receptor = experiment: Gene expression profiling (Affymetrix chips) of muscle from diabetics before/after troglitazone: Endothelin A receptor transcripts; details: Endothelin A receptor mRNA, Clamp sample
Description: as §1, §2, §3

[1] = 3 months of Troglitazone treatment

**Q.** Which results are given for `Cc1c(C)c2c(c(C)c1O)CCC(C)(COc1ccc(CC3SC(=O)NC3=O)cc1)O2` (centres unmarked) [Troglitazone, troglitazone]?
**A.** Fold Change (diabetic post tro/diabetic pre tro) (PRK1; [1]): 0.54; Diabetic Post-Trog Mean Expr (PRK1; diabetic patients after 3 months of Troglitazone treatment (pre-Trog mean 1634)): 874; Fold Change (diabetic post tro/diabetic pre tro) (HIOMT; [1]): 1.51; Diabetic Post-Trog Mean Expr (HIOMT; diabetic patients after 3 months of Troglitazone treatment (pre-Trog mean 518)): 781; Fold Change (diabetic post tro/diabetic pre tro) (Ceramidase; [1]): 0.68; Diabetic Post-Trog Mean Exp (Ceramidase; diabetic patients after 3 months of Troglitazone treatment (pre-Trog mean 630)): 427; Fold Change (diabetic post tro/diabetic pre tro) (Endothelin A receptor; [1]): 0.52; Diabetic Post-Trog Mean Expr (Endothelin A receptor; diabetic patients after 3 months of Troglitazone treatment (pre-Trog mean 194)): 102
